Data as given in patent US20020137929A1, “1 - (3-heterocyclylphenyl) isothiourea, -isourea, -guanidine and -amidine herbicidal agents” (Intellectual Property Department, BASF Aktiengesellschaft, priority 1998, published 2002).

Tests used:
ZEAMX (Corn, Field) [1] = test: Postemergence herbicidal evaluation; format: in vivo, Zea mays; conditions: postemergence
Outline: (§1)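 Herbicidal effect was judged by eye on a 0–9 scale covering stand, vigor, deformity, size and chlorosis, compared with controls, four to five weeks after seedlings about two weeks old were sprayed (40 psi, ~0.0156–0.500 kg/ha).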

[2] = tested on: CHEAL (Lambsquarters, Common); test: Preemergence herbicidal evaluation; format: in vivo, Chenopodium album; conditions: rated 4-5 weeks after treatment, rating scale 0-9
Outline: (§2)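 Visual 0-9 rating vs control (stand, vigor, malformation, size, chlorosis, overall appearance), scored 4-5 wk after spraying. Seeded soil cups were treated preemergence with compound in aqueous acetone, ~0.0156-0.500 kg/ha equivalent.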

GALAP (Galium) = test: Postemergence herbicidal evaluation; format: in vivo, Galium aparine; conditions: postemergence
Outline: as §1

CYPIR (Rice Flatsedge) = test: Preemergence weed control under flooded paddy conditions; format: in vivo, Cyperus iria; conditions: rated 3-4 weeks after treatment
Outline: (§3)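 Ratings on a 0-9 visual scale cover stand, vigor, malformation, size, chlorosis and overall appearance relative to a control, taken three to four weeks post-treatment. Application was into flood water over freshly sown silt loam at roughly 0.0313 to 0.500 kg/ha.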

ZEAMX (Corn, Field) [3] = test: Preemergence herbicidal evaluation; format: in vivo, Zea mays; conditions: rated 4-5 weeks after treatment, rating scale 0-9
Outline: as §2

AMBEL (Ragweed, Common) = test: Preemergence herbicidal evaluation; format: in vivo, Ambrosia artemisifolia; conditions: rated 4-5 weeks after treatment, rating scale 0-9
Outline: as §2

ORYSAT (Rice, Tebonnet) = test: Preemergence herbicidal evaluation; format: in vivo, Oryza sativa, (L.) Tebonnet; conditions: rated 4-5 weeks after treatment, rating scale 0-9
Outline: as §2

[4] = tested on: TRZAWR (Wheat, Winter, cv Riband); test: Preemergence herbicidal evaluation; format: in vivo, Triticum aestivum; conditions: rated 4-5 weeks after treatment, rating scale 0-9
Outline: as §2

CASOB (Sicklepod) = test: Postemergence herbicidal evaluation; format: in vivo, Cassia obtusifolia; conditions: postemergence
Outline: as §1

[5] = tested on: IPOHE (Morningglory, Ivyleaf); test: Preemergence herbicidal evaluation; format: in vivo, Ipomoea hederacea; conditions: rated 4-5 weeks after treatment, rating scale 0-9
Outline: as §2

CYPSE (Flatsedge) = test: Preemergence weed control under flooded paddy conditions; format: in vivo, Cyperus serotinus; conditions: rated 3-4 weeks after treatment
Outline: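 Greenhouse paddy assay. Acetone/water (50/50 v/v) solutions dosed into flood water, equivalent to about 0.0313 to 0.500 kg/ha active ingredient, over seeds planted 0.5 cm deep in silt loam. Score: 0-9 visual, based on stand, vigor, malformation, size and chlorosis, 3 to 4 weeks after treatment.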

[6] = tested on: ECHORC (Watergrass (Calif.)); test: as above; format: in vivo, Echinochloa oryzoides; conditions: rated 3-4 weeks after treatment
Outline: as §3

Structure (SMILES)	Herbicidal rating ZEAMX (ZEAMX (Corn, Field) [1]; rate 0.0156 kg/ha)	Herbicidal rating ZEAMX (ZEAMX (Corn, Field) [1]; rate 0.0313 kg/ha)	Herbicidal rating ZEAMX (ZEAMX (Corn, Field) [1]; rate 0.0625 kg/ha)	Preemergence herbicidal rating CHEAL ([2]; rate 0.0625 kg/ha)	Preemergence herbicidal rating CHEAL ([2]; rate 0.1250 kg/ha)	Preemergence herbicidal rating CHEAL ([2]; rate 0.2500 kg/ha)	Herbicidal rating GALAP (GALAP (Galium); rate 0.0156 kg/ha)	Herbicidal rating GALAP (GALAP (Galium); rate 0.0313 kg/ha)	Herbicidal rating GALAP (GALAP (Galium); rate 0.0625 kg/ha)	herbicidal effect rating, CYPIR (CYPIR (Rice Flatsedge); 0.0313 kg/ha)	herbicidal effect rating, CYPIR (CYPIR (Rice Flatsedge); 0.0625 kg/ha)	herbicidal effect rating, CYPIR (CYPIR (Rice Flatsedge); 0.1250 kg/ha)	herbicidal effect rating, CYPIR (CYPIR (Rice Flatsedge); 0.2500 kg/ha)	Preemergence herbicidal rating ZEAMX (ZEAMX (Corn, Field) [3]; rate 0.0625 kg/ha)	Preemergence herbicidal rating ZEAMX (ZEAMX (Corn, Field) [3]; rate 0.1250 kg/ha)	Preemergence herbicidal rating ZEAMX (ZEAMX (Corn, Field) [3]; rate 0.2500 kg/ha)	Preemergence herbicidal rating AMBEL (AMBEL (Ragweed, Common); rate 0.0625 kg/ha)	Preemergence herbicidal rating AMBEL (AMBEL (Ragweed, Common); rate 0.1250 kg/ha)	Preemergence herbicidal rating AMBEL (AMBEL (Ragweed, Common); rate 0.2500 kg/ha)	Preemergence herbicidal rating ORYSAT (ORYSAT (Rice, Tebonnet); rate 0.0625 kg/ha)	also measured
COc1cc(CN2C(=O)CSC2=Nc2cc(-n3c(=O)cc(C(F)(F)F)n(C)c3=O)c(F)cc2Cl)cc(OC)c1OC [Compound 140, 3-{4-Chloro-2-fluoro-5-{[3-(3,4,5-trimethoxybenzyl)-4-oxo-2-thiazolidinylidene]amino}phenyl}-1-methyl-6-(trifluoromethyl)-2,4(1H,3H)-pyrimidinedione]	3.5	4.0	4.0	9.0	9.0	9.0	0.0	0.0	2.0	4.0	7.0	9.0	7.0	0.0	0.0	0.0	0.0	0.0	0.0	0.0	Preemergence herbicidal rating ORYSAT (ORYSAT (Rice, Tebonnet); rate 0.1250 kg/ha): 0.0; Preemergence herbicidal rating ORYSAT (ORYSAT (Rice, Tebonnet); rate 0.2500 kg/ha): 0.0; Preemergence herbicidal rating TRZAWR ([4]; rate 0.0625 kg/ha): 0.0; Preemergence herbicidal rating TRZAWR ([4]; rate 0.1250 kg/ha): 0.0; Preemergence herbicidal rating TRZAWR ([4]; rate 0.2500 kg/ha): 0.0; Herbicidal rating CASOB (CASOB (Sicklepod); rate 0.0156 kg/ha): 0.0; Herbicidal rating CASOB (CASOB (Sicklepod); rate 0.0313 kg/ha): 0.0; Herbicidal rating CASOB (CASOB (Sicklepod); rate 0.0625 kg/ha): 0.0; Preemergence herbicidal rating IPOHE ([5]; rate 0.0625 kg/ha): 0.0; Preemergence herbicidal rating IPOHE ([5]; rate 0.1250 kg/ha): 3.0; Preemergence herbicidal rating IPOHE ([5]; rate 0.2500 kg/ha): 3.0; herbicidal effect rating, CYPSE (CYPSE (Flatsedge); 0.0313 kg/ha): 0.0; herbicidal effect rating, CYPSE (CYPSE (Flatsedge); 0.0625 kg/ha): 0.0; herbicidal effect rating, CYPSE (CYPSE (Flatsedge); 0.1250 kg/ha): 0.0; herbicidal effect rating, CYPSE (CYPSE (Flatsedge); 0.2500 kg/ha): 0.0; herbicidal effect rating, ECHORC ([6]; 0.0313 kg/ha): 5.0; herbicidal effect rating, ECHORC ([6]; 0.0625 kg/ha): 5.0; herbicidal effect rating, ECHORC ([6]; 0.1250 kg/ha): 7.0; herbicidal effect rating, ECHORC ([6]; 0.2500 kg/ha): 7.0
Cn1c(C(F)(F)F)cc(=O)n(-c2cc(N=C3SCC(=O)N3Cc3cccnc3)c(Cl)cc2F)c1=O [Compound 132, 3-{4-Chloro-2-fluoro-5-{[4-oxo-3-(3-pyridylmethyl)-2-thiazolidinylidene]amino}phenyl}-1-methyl-6-(trifluoromethyl)-2,4 (1H,3H)-pyrimidinedione]	3.5	4.0	4.5	9.0	9.0	9.0	2.0	2.0	3.0	0.0	0.0	0.0	3.0	0.0	0.0	2.0	0.0	4.0	7.0	0.0	Preemergence herbicidal rating ORYSAT (ORYSAT (Rice, Tebonnet); rate 0.1250 kg/ha): 0.0; Preemergence herbicidal rating ORYSAT (ORYSAT (Rice, Tebonnet); rate 0.2500 kg/ha): 1.0; Preemergence herbicidal rating TRZAWR ([4]; rate 0.0625 kg/ha): 0.0; Preemergence herbicidal rating TRZAWR ([4]; rate 0.1250 kg/ha): 0.0; Preemergence herbicidal rating TRZAWR ([4]; rate 0.2500 kg/ha): 1.0; Herbicidal rating CASOB (CASOB (Sicklepod); rate 0.0156 kg/ha): 1.0; Herbicidal rating CASOB (CASOB (Sicklepod); rate 0.0313 kg/ha): 1.0; Herbicidal rating CASOB (CASOB (Sicklepod); rate 0.0625 kg/ha): 6.0; Preemergence herbicidal rating IPOHE ([5]; rate 0.0625 kg/ha): 0.0; Preemergence herbicidal rating IPOHE ([5]; rate 0.1250 kg/ha): 0.0; Preemergence herbicidal rating IPOHE ([5]; rate 0.2500 kg/ha): 2.0; herbicidal effect rating, CYPSE (CYPSE (Flatsedge); 0.0313 kg/ha): 0.0; herbicidal effect rating, CYPSE (CYPSE (Flatsedge); 0.0625 kg/ha): 0.0; herbicidal effect rating, CYPSE (CYPSE (Flatsedge); 0.1250 kg/ha): 0.0; herbicidal effect rating, CYPSE (CYPSE (Flatsedge); 0.2500 kg/ha): 0.0; herbicidal effect rating, ECHORC ([6]; 0.0313 kg/ha): 3.0; herbicidal effect rating, ECHORC ([6]; 0.0625 kg/ha): 4.0; herbicidal effect rating, ECHORC ([6]; 0.1250 kg/ha): 4.0; herbicidal effect rating, ECHORC ([6]; 0.2500 kg/ha): 6.0
